Reference: publication PMC6452685, “Lysyl-tRNA synthetase as a drug target in malaria and cryptosporidiosis” (Proceedings of the National Academy of Sciences of the …, 2019)

Legend:
C. parvum [1] = experiment: In vitro Cryptosporidium time-kill curve assay in HCT-8 cells; type: cell-based; conditions: C. parvum in HCT-8 cell culture
Protocol: SUPPLEMENTARY INFORMATION ileocecal adenocarcinoma (HCT-8) cel l s (ATC C ) w ere cul t ured i n RP M I 1640 medi um (I nv i t rog en) supplemented with 10% fetal bovine serum (Sigma-Al dri ch), 120 U/ml peni ci l l i n, and 12 0 µg/ml streptomycin (ATCC), and used between passages 9 and 39 for all experiments. Cryptospori di um parvum Iowa isolate oocysts were purchased from Bunch Grass Farm (Deary, ID). Oocys ts were triggered to excyst by treating with 10 mM hydrochloric acid (10 min, 37°C) and the n 2 mM sodium taurocholate (Sigma-Al d r i c h ) i n P B S ( 1 0 m i n , […] ) . They w ere t hen added t o > 95% co nfl uent HC T-8 cel l monol ay ers i n 384-well plates (~5,500 oocysts/well). Ex pe ri me nt al compounds w e re adde d 3 h after i nfecti on, and assay pl ates were incubated for 48 h post-infection at 37°C unde r 5% CO2. Assay pl at es w ere t hen w as hed t h ree t i mes w i t h PBS cont ai ni ng 11 1 mM D-galactose, fixed with 4% parafo rmal dehy de i n PBS, t reat ed f or 10 mi n at 3 7°C w i t h 0. 25% T ri t on X-100, an d s t ai ned w i t h 1. […] […] […] Curves were pl ot t ed and t he hal f-maxi mal effecti ve (EC50) and 90% effecti v e concentrati on (EC90) were cal cul ated us i ng G raphPad Pri s m s oft w are, v ersi on 6. 01. […]
Cryptospori di um parvum elimination during cul ture in HCT-8 cells was measured as recently des cri bed (10). […]

CYP1A2 = target: T1, CYP1A2 (Homo sapiens, UniProt P05177); experiment: Fluorescence-based CYP inhibition, CYP1A2; type: in vitro ADME
T1 construct: purchased Cypex, Dundee, UK; host or cells: bacterial membranes (bactosomes)
T1 sequence (P05177 whole entry): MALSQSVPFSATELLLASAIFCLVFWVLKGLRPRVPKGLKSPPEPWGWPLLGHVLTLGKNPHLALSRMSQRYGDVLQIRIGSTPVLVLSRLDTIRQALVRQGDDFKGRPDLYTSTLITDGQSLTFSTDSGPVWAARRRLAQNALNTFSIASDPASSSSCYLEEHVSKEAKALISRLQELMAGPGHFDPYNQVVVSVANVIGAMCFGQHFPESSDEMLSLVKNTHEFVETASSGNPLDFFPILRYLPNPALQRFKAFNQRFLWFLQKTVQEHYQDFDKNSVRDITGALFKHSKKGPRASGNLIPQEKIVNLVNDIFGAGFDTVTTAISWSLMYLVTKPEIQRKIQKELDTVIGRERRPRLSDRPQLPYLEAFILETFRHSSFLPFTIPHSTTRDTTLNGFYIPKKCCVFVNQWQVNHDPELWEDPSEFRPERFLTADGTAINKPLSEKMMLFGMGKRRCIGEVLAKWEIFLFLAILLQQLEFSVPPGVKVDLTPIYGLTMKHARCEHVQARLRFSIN
Protocol: 4.7 F lu or e s ce nce-based CYP I nhibition usin g recombinantly expressed CYP b actosomes Fl uorogeni c C YP i nhi bi t i on s t udi es w ere c ondu ct ed at 37 °C i n 96-well, flat-bot t om, cl ear p ol y s t y rene pl at es. I ncubat i on mi xt ures cont ai ni ng Eas y C YP bact os omes (1000 pmol /ml , 10 mg /ml C y pex TM, Dundee, UK), fl uorogeni c substrate (Cypex TM) and 50 mM potas s i um phosphat e buffer (p H 7. 4) w er e prepared at t he fol l ow i ng fi nal concent rat i ons : C YP1A2, 5 pmol /ml + 35 µ M et hox y res orufi n (ER) ; CYP2C9, 10 pm ol/ml + 30 µM 7-methoxy-4-(tri fl uo romethy l )-coumari n (MFC ); C YP 2C 19, 5 pm ol /ml + 25 µM 3-cy ano-7-eth oxycoumarin (CEC); C YP 2D 6, 10 pmol /ml + 6 µM 7-meth oxy-4-(ami nomethy l )- coumari n (MAMC ); C YP 3A4, 10 pmol /ml + 1 µM diethoxyfluorescein (DEF) and 10 pmol /ml + 15 µM 7-benz y l ox y qui nol i ne (BQ ). […] 0125 ( 1A2 and 2C 9 onl y ) o r 0. 025 mg /ml (al l ot her i s oforms ). […] Positive control inhibitor, miconazole, was prepared as a 500 µM s olution in DMSO and similarly diluted.
For eac h i sofo rm, 2 20 µl of i ncubati on mi x was added to each wel l of a 96-well, flat-bot t om, cl ear pol y s t y rene pl at e. Al i quot s (5 µl) of each compound 5 conce ntrati on was then mi x ed wi th 220 µl of the incubation mix and pre-incubated at 37 °C for 5 min (final test compound concentration range: […]

C. parvum [2] = experiment: Anti-Cryptosporidium in vivo efficacy in NOD SCID gamma mice; design: species or system mouse
Protocol: INF-γ–knockout mice ([28], [29]) were infected orally with Nluc-expressing transgenic C. parvum oocysts. Treatment started upon patency 4 d postinfection (p.i.), and mice were treated orally once a day for 7 d. Infection was monitored daily by luciferase measurements in pooled feces of the entire cage. Mice were followed for 3 wk after completion of drug treatment. […] NOD SCID gamma mice were infected with C. parvum oocysts ([26]). Treatment started 7 d p.i., and mice were treated orally once a day for 7 d. The study was run with four mice per cage; infection was monitored by quantitative PCR on day eight for individual mice, and data are shown as oocysts per milligram of feces. […]
Data analysis was performed using GraphPad Prism 7.0 (GraphPad S oftware), Excel 2016 (Microsoft ) and R free so ftware (https://www.r-project.org) for data pl otti ng and s tati s ti cal model li ng. […]
The Nl uc-C. parvum IFN-γ-knockout (IFN-γ KO) m ouse in vivo experiments were run in acco rdance with the publ i s hed method (22). Briefly, female C57BL/ 6 IFN-γ KO mi ce, aged 6–8 weeks were infected with 10,000 C. parvum UG A1 Nl uc (Vi naya k et al 2015, Natu re) tra ns g eni c oocys ts . Mi ce (n=5 per g rou p) w ere admi ni s t ered 20 mg /k g of comp o und 5 fo rmul ated i n 3% et hanol , 7% Tw een 8 0, 90 % saline or t he f ormul at i on (v ehi cl e) by o ral g av ag e. […]

Row | Compound | time-kill curve, parasite elimination (C. parvum [1]) | IC50 (CYP1A2) [µM] | reduction in parasite levels compared with control (C. parvum [2]; NOD SCID gamma mouse, 20 mg/kg orally once a day for 7 d, day 8) [fold] | reduction of parasite burden (C. parvum [2]; dosed orally for 7 d, NOD SCID gamma mouse model)
1 | C[C@H]1CCC[C@H](C[C@H]2Cc3cc(O)cc(O)c3C(=O)O2)O1 [Compound 1, cladosporin, reference compound] | eliminated parasites at an exponential rate | – | – | –
2 | O=C(NCC1(O)CCC(F)(F)CC1)c1cc(=O)c2cc(F)ccc2o1 [Compound 5] | eliminated parasites at an exponential rate | > 10 | 100 | two orders of magnitude
